Experimental findings from US20260069530A1, “METHODS OF TREATING PRIMARY LIVER TUMORS WITH NATURAL KILLER CELLS EXPRESSING A CYTOTOXIC RECEPTOR COMPLEX” (NKARTA, INC., priority 2018, published 2026) are described below.

One data set concerns HL60 cells. Kind of data set: HL60 leukemia cell growth in co-culture with NK cells, with or without HDAC inhibitor. In kind it is cell-based. The conditions noted are these: valproic acid added to culture with NK cells expressing the NKG2D CAR (FIG. 35B). As to the method: As discussed above, additional agents can be co-administered with engineered NK cells disclosed herein. For example, in several embodiments, histone deacetylase inhibitors are administered with engineered NK cells targeting an NKG2D ligand (or other tumor marker, such as CD123 or CD19). The leukemia cell line was grown alone as a control, co-cultured with NK cells expressing GFP, or co-cultured with NK cells expressing an NKG2D CAR as disclosed herein. By way of non-limiting example, the NKG2D CAR used in this example was NKG2D-OX40-[…]-mbIL15. […] According to additional embodiments, other HDAC inhibitors are used, such as romidepsin (e.g. FR901228), entinostat (e.g., MS-275) phenylbutyrate, belinostat (PDX101), sodium valproate, suberoylanilide hydroxamic acid, or combinations thereof.

The next data set deals with SNU-387 cells. The data set is described as follows: sorafenib dose-response against HCC cell lines. The note with it: read-out: EC50 (concentration to achieve 50% cytotoxicity); FIG. 7B.
The next data set deals with NKG2D ligands. Kind of data set: total NKG2D ligand expression on HCC cell lines, flow cytometry with NKG2D-Fc. It is filed as cell-based, human. The text has this: (§1) FIGS. 17A-17N relate to expression of total NKG2D ligands and PD-L1 in relation to sorafenib concentration. FIGS. 17A-17F depict flow cytometry data related to changes in total NKG2D ligand expression in the indicated tumor cell lines in response to various concentrations of sorafenib (total expression is based on the use of the NKG2D-Fc fusion, so detection is of any ligand NKG2D could bind). FIGS. 17G-17L depict flow cytometry data related to changes in PD-L1 expression in the indicated tumor cell lines in response to various concentrations of sorafenib. FIGS. 17M and 17N are line graphs that summarize the flow cytometry data.
(§2) FIGS. 18A-18T relate to expression of total NKG2D ligands and PD-L1 in relation to Interferon gamma (IFNg) concentration. FIGS. 18A-18I depict flow cytometry data related to changes in total NKG2D ligand expression in the indicated tumor cell lines in response to various concentrations of IFNg (total expression is based on the use of the NKG2D-Fc fusion, so detection is of any ligand NKG2D could bind). […]
(§3) To investigate a possible mechanism of action regarding the sensitivity of hepatocellular carcinoma cells to sorafenib, the expression of the total population of NKG2D ligands on each cell line was measured in response to various doses of sorafenib. The total population of NKG2D ligands was detected through the use of the NKG2D-Fc chimeric antibody. […]
(In flow cytometry, cells or beads pass a laser one at a time.)

For a further data set, the system named is Huh-7. Kind of data set: sorafenib dose-response against HCC cell lines. The conditions noted are these: read-out: EC50 (concentration to achieve 50% cytotoxicity); FIG. 7B.
The subject of a further data set is PD-L1. The data set is described as follows: PD-L1 expression on HCC cell lines, flow cytometry. In kind it is cell-based, human.
From the text: as §1, §2, §3

Description for HCC cells: NKX101 cells were generated by transduction with a bicistronic virus encoding NKG2D, an intracellular OX40 costimulatory domain, CD33 signaling domain, and membrane-bound IL-15, which supports prolonged cell survival and proliferation. […] Combination with a sub-EC50 concentration of the kinase inhibitor Sorafenib (used here as a non-limiting example of an additional anti-cancer agent), an approved agent for HCC, was tested for additive cytotoxic effect with at low E:T ratios of NKX101 NK cells in vitro at 48 hrs.

On to `CCCC(CCC)C(=O)O` [valproic acid], for which, in the data set on HL60 cells, the HL60 cell growth entry was “synergistically interacted with the NK cells expressing the NKG2D CAR dramatically suppress HL-60 cell growth”.
Consider `CNC(=O)c1cc(Oc2ccc(NC(=O)Nc3ccc(Cl)c(C(F)(F)F)c3)cc2)ccn1` [sorafenib], for which the EC50 is 29.4 µM in the data set with SNU-387 cells and 7.96 µM in the data set on Huh-7. In the data set with NKG2D ligands (various doses of sorafenib (FIG. 17M)), the “change in total NKG2D ligand expression” value is listed as “does not appear to have a substantial impact on the NKG2D ligand expression”. Also, the “change in PD-L1 expression” value in the data set with PD-L1 (10 micromolar sorafenib (FIG. 17N)) was “many of the cell lines show an increase in PD-L1 expression”. In the data set with HCC cells, the “cytotoxic effect of combination” value was “additive effect”.
Consider “interferon gamma: inflammatory cytokine secreted by NK cells once activated”, for which the “change in total NKG2D ligand expression” value in the data set on NKG2D ligands (various concentrations of interferon gamma, nine HCC lines (FIG. 18S)) is on record as “there does not appear to be a clear impact of interferon gamma on the expression of the total pool of NKG2D ligands”. For the same molecule, in the data set on PD-L1 (higher doses of interferon gamma (FIG. 18T)), the “change in PD-L1 expression” value was “several cell lines seem to show a trend towards increasing PD-L1 expression with the higher doses of interferon gamma”.
